According to patent US12144864B2, “Tubulysins and protein-tubulysin conjugates” (Regeneron Pharmaceuticals, Inc., priority 2018, dated 2024):
Like-named read-outs stand apart in the source and are kept apart here.

Key:
[1] = test system: HCT15 cells; assay: cells; format: cell-based, human; conditions: HCT15 cells; for HCT-15 + verapamil % Kill / HCT-15 % Kill: maximum % cell killing
Method in brief: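 HCT15 colorectal carcinoma cells, 1000 per well in RPMI/10% FBS, with or without 5 ug/mL verapamil, exposed to 1:3 serially diluted payloads for 5 days at 37 °C. Viability measured by CellTiter-Glo ATP luminescence; IC50 from four-parameter logistic fit of a 10-point curve, % kill at top concentration.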

[2] = test system: C4-2 cells; assay: Cell-based killing assay of payloads (CellTiter-Glo), C4-2 cells; design: species or system human; conditions: 5-day incubation; for IC50: Homo sapiens, C4-2, 120 h, average ± SD where replicates; for C4-2 % Kill: at maximum concentration tested (100 − % viable cells)
Experimental: (§1) To test the ability of the disclosed tubulysin payloads to kill human cell lines, an in vitro cytotoxicity assay was performed. In vitro cytotoxicity of the disclosed payloads, as well as reference compounds, were evaluated using the CellTiter-Glo Assay Kit (Promega, Cat #G7573), in which the quantity of ATP present is used to determine the number of viable cells in culture. For the assay, C4-2, HEK293, or T47D cells were seeded at 4000 cells/well on Nunclon white 96-well plates in complete growth medium (DME high glucose:Ham's F12 at 4:1, 10% FBS, 100 units/ml Penicillin, 100 ug/ml streptomycin, 53 ug/ml glutatmine, 10 ug/ml insulin, 220 ng/ml biotin, 12.5 pg/ml T3, 12.5 ug/ml Adenine, 4 ug/ml transferrin for C42 cells; DME high glucose, 10% FBS, 100 units/ml Penicillin, 100 ug/ml streptomycin, 53 ug/ml glutatmine for HEK293; RPMI, 10% FBS, 100 units/ml Penicillin, 100 ug/ml streptomycin, 53 ug/ml glutatmine, 10 ug/ml insulin, 10 mM HEPEs, 200 nM Sodium Pyruvate for T47D cells) and grown overnight at 37° C. in 5% CO2. For cell viability curves, 1:3 serially diluted payloads were added to the cells at final concentrations ranging from 100 nM to […], including a no treatment control group, and were then incubated for 5 days. After the 5-day incubation, cells were incubated at room temperature with 100 μL of CellTiter-Glo reagents for 10 minutes. Relative luminescence units (RLU) were determined on a Victor plate reader (PerkinElmer). The IC50 values were determined from a four-parameter logistic equation over a 10-point response curve (GraphPad Prism). All IC50 values are expressed in molar (M) concentration. The percent cell killing (% kill) at the maximum concentration tested was estimated from the following formula (100−% viable cells). Averages±standard deviation (SD) are included where replicate experiments were performed.

[3] = test system: T47D cells; assay: Cell-based killing assay of payloads (CellTiter-Glo), T47D cells; design: species or system human; conditions: 5-day incubation; for IC50: Homo sapiens, T47D, 120 h
Experimental: as §1

[4] = test system: HEK293 cells; assay: Cell-based killing assay of payloads (CellTiter-Glo), HEK293 cells; design: species or system human; conditions: 5-day incubation; for IC50: Homo sapiens, HEK293, 120 h
Experimental: as §1

[5] = test system: HL60/MX2 cells; assay: Cytotoxicity in panel of MDR cell lines, HL60/MX2 (72 h and 144 h); format: cell-based, human; conditions: for IC50: Homo sapiens
Method in brief: (§2)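 Four-parameter logistic fitting of 10-point CellTiter-Glo curves gives the IC50, expressed molar. Cells, including resistant H69AR, MES-SA/MX2 and HL60/MX2 plus HCT-15, are plated at 1000/well and exposed to payloads for 72 h and 144 h.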

[6] = test system: H69AR cells; assay: Cytotoxicity in panel of MDR cell lines, H69AR (72 h and 144 h); format: cell-based, human; conditions: for IC50: Homo sapiens
Method in brief: as §2

[7] = test system: HCT-15 cells; assay: Cytotoxicity in panel of MDR cell lines, HCT-15 (72 h and 144 h); format: cell-based, human; conditions: for IC50: Homo sapiens
Method in brief: as §2

[8] = test system: MES-SA/MX2 cells; assay: Cytotoxicity in panel of MDR cell lines, MES-SA/MX2 (72 h and 144 h); format: cell-based, human; conditions: for IC50: Homo sapiens
Method in brief: as §2

[9] = with 5 ug/mL Verapamil, read-out: HCT-15 + verapamil IC50
[10] = Homo sapiens, HCT-15, without Verapamil, read-out: HCT-15 IC50
[11] = at maximum concentration tested
[12] = 72 h incubation, read-out: HL60/MX2 IC50 72 h
[13] = 144 h incubation, read-out: HL60/MX2 IC50 144 h
[14] = 72 h incubation, read-out: H69AR IC50 72 h
[15] = 144 h incubation, read-out: H69AR IC50 144 h
[16] = 72 h incubation, read-out: HCT-15 IC50 72 h
[17] = 144 h incubation, read-out: HCT-15 IC50 144 h
[18] = 72 h incubation, read-out: MES-SA/MX2 IC50 72 h
[19] = 144 h incubation, read-out: MES-SA/MX2 IC50 144 h

| Structure (SMILES) | HCT-15 + verapamil % Kill ([1]; with 5 ug/mL Verapamil) | IC50 [1, 9] | HCT-15 % Kill ([1]; without Verapamil) | IC50 [1, 10] | IC50 [2] | C4-2 % Kill [2] | HL60/MX2 % Kill 72 h ([5]; 72 h incubation) | HL60/MX2 % Kill 144 h ([5]; 144 h incubation) | IC50 [5, 12] | IC50 [5, 13] | H69AR % Kill 72 h ([6]; 72 h incubation) | H69AR % Kill 144 h ([6]; 144 h incubation) | IC50 [6, 14] | IC50 [6, 15] | HCT-15 % Kill 72 h ([7]; 72 h incubation) | HCT-15 % Kill 144 h ([7]; 144 h incubation) | IC50 [7, 16] | IC50 [7, 17] | MES-SA/MX2 % Kill 72 h ([8]; 72 h incubation) | MES-SA/MX2 % Kill 144 h ([8]; 144 h incubation) | other results |
| --- | --- | --- | --- | --- | --- | --- | --- | --- | --- | --- | --- | --- | --- | --- | --- | --- | --- | --- | --- | --- | --- |
| CC[C@H](C)[C@H](NC(=O)[C@H]1CCCCN1C)C(=O)N(CCCCc1c[nH]nn1)[C@H](C[C@@H](OC(C)=O)c1nc(C(=O)N[C@@H](Cc2ccc(N)cc2)CC(C)(C)C(=O)O)cs1)C(C)C [IVj, (S)-4-(2-((1R,3R)-3-((2S,3S)—N-(4-(1H-1,2,3-triazol-5-yl)butyl)-3-methyl-2-((R)-1-methylpiperidine-2-carboxamido)pentanamido)-1-acetoxy-4-methylpentyl)thiazole-4-carboxamido)-5-(4-aminophenyl)-2,2-dimethylpentanoic acid] | 98.4% | 5560 pM | 96.4% | 7800 pM | 7160 pM | 94.5% |  |  |  |  |  |  |  |  |  |  |  |  |  |  | IC50 [3]: 17700 pM; T47D % Kill [3, 11]: 79.9%; IC50 [4]: 17600 pM; HEK293 % Kill [4, 11]: 75.5% |
| CC[C@H](C)[C@H](NC(=O)[C@H]1CCCCN1C)C(=O)N(CCCCc1cn(-c2ccccc2)nn1)[C@H](C[C@@H](OC(C)=O)c1nc(C(=O)N[C@@H](Cc2ccc(N)cc2)CC(C)(C)C(=O)O)cs1)C(C)C [IVp, (S)-4-(2-((1R,3R)-1-acetoxy-4-methyl-3-((2S,3S)-3-methyl-2-((R)-1-methylpiperidine-2-carboxamido)-N-(4-(1-phenyl-1H-1,2,3-triazol-4-yl)butyl)pentanamido)pentyl)thiazole-4-carboxamido)-5-(4-aminophenyl)-2,2-dimethylpentanoic acid] | 97.6% | 86.4 pM | 98.7% | 239 pM | 177 pM | 94.2% | 97.5% | 99.9% | 23.7 pM | < 15 pM | 96.3% | 99.2% | 644 pM | 1120 pM | 97.6% | 99.7% | 181 pM | 231 pM | 98.8% | 99.9% | IC50 [8, 18]: 792 pM; IC50 [8, 19]: 1660 pM |
| [2H]c1cc(C[C@@H](CC(C)(C)C(=O)O)NC(=O)c2csc([C@@H](C[C@H](C(C)C)N(CCCCCC)C(=O)[C@@H](NC(=O)[C@H]3CCCCN3C)[C@@H](C)CC)OC(C)=O)n2)cc([2H])c1N [IVs, (S)-4-(2-((1R,3R)-1-Acetoxy-3-((2S,3S)—N-hexyl-3-methyl-2-((R)-1-methylpiperidine-2-carboxamido)pentanamido)-4-methylpentyl)thiazole-4-carboxamido)-5-(4-aminophenyl-3,5-d2)-2,2-dimethylpentanoic acid] | 98.8% | 45.9 pM | 99.1% | 108 pM | 49.9 pM | 93.8% | 98.4% | 100% | < 15 pM | < 15 pM | 96.8% | 99.4% | 161 pM | 281 pM | 97.6% | 99.7% | 37.1 pM | 50.1 pM | 99.2% | 100% | IC50 [8, 18]: 102 pM; IC50 [8, 19]: 210 pM |
| CCCCCCN(C(=O)[C@@H](NC(=O)[C@H]1CCCCN1C)[C@@H](C)CC)[C@H](C[C@@H](OC(C)=O)c1nc(C(=O)N[C@@H](Cc2ccc(N)c(F)c2)CC(C)(C)C(=O)O)cs1)C(C)C [IVvB, 4-({2-[(1R,3R)-1-(Acetyloxy)-3-[(2S,3S)—N-hexyl-3-methyl-2-{[(2R)-1-methylpiperidin-2-yl]formamido}pentanamido]-4-methylpentyl]-1,3-thiazol-4-yl}formamido)-5-(4-amino-3-fluorophenyl)-2,2-dimethylpentanoic acid] | 97.7% | 15 pM | 97.3% | 25 pM | 21.5 pM | 94.6% | 98.2% | 99.8% | < 15 pM | < 15 pM | 96.9% | 99.1% | 59.9 pM | 158 pM | 97.7% | 99.6% | < 15 pM | 22.8 pM | 99.1% | 99.9% | IC50 [8, 18]: 45.6 pM; IC50 [8, 19]: 65.8 pM |
| CCCCCON(C(=O)[C@@H](NC(=O)[C@H]1CCCCN1C)[C@@H](C)CC)[C@H](C[C@@H](OC(=O)NC)c1nc(C(=O)N[C@@H](Cc2ccc(N)cc2)CC(C)(C)C(=O)O)cs1)C(C)C [VIh, (S)-5-(4-Aminophenyl)-4-(2-((5R,7R)-7-isopropyl-8-((2S,3S)-3-methyl-2-((R)-1-methylpiperidine-2-carboxamido)pentanoyl)-3-oxo-4,9-dioxa-2,8-diazatetradecan-5-yl)thiazole-4-carboxamido)-2,2-dimethylpentanoic acid] | 97.8% | 71.6 pM | 99% | 263 pM | 159 pM | 93.9% | 97.6% | 99.9% | 39.1 pM | < 15 pM | 96.3% | 99.1% | 1070 pM | 1730 pM | 97.9% | 99.7% | 366 pM | 515 pM | 98.5% | 99.8% | IC50 [8, 18]: 1260 pM; IC50 [8, 19]: 2720 pM |
| CC[C@H](C)[C@H](NC(=O)[C@H]1CCCCN1C)C(=O)N(OCCCO)[C@H](C[C@@H](OC(C)=O)c1nc(C(=O)N[C@@H](Cc2ccc(O)cc2)C[C@H](C)C(=O)O)cs1)C(C)C [Vk, (2S,4R)-4-(2-((1R,3R)-1-Acetoxy-3-((2S,3S)—N-(3-hydroxypropoxy)-3-methyl-2-((R)-1-methylpiperidine-2-carboxamido)pentanamido)-4-methylpentyl)thiazole-4-carboxamido)-5-(4-hydroxyphenyl)-2-methylpentanoic acid] | 83% | 42700 pM | 41.5% | ≥ 100000 pM |  |  |  |  |  |  |  |  |  |  |  |  |  |  |  |  | IC50 [3]: > 100000 pM; IC50 [4]: > 100000 pM |
